Tests used:
SCD1 = target: T1, SCD1 (Homo sapiens, UniProt O00767); test: Growth inhibition of humanized yeast strain expressing SCD1 as sole desaturase; format: cell-based; settings: humanized yeast strain, 40 h
T1 construct: host or cells: S. cerevisiae ole1Δ strain (W303 pdr1Δ pdr3Δ background), plasmid pRS316 with TDH3 promoter and CYC1 terminator
T1 sequence (O00767 1-359): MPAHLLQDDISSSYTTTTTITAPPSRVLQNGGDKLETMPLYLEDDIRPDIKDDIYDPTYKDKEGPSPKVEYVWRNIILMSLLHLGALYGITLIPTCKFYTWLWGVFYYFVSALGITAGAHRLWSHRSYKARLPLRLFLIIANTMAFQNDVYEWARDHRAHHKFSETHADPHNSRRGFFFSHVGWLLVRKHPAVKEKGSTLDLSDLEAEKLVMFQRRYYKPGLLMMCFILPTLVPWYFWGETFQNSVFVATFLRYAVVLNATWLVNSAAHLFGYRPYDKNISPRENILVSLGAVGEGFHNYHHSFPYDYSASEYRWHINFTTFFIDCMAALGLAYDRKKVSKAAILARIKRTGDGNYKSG
How it was run: (§1)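 Yeast ole1Δ strain (W303 pdr1Δ pdr3Δ background) carrying plasmid-borne Ole1, SCD1 or SCD5 as sole desaturase was grown in uracil-lacking media, pre-cultured in raffinose for 6 h, then seeded in galactose medium with compound in DMSO. Growth was read as OD600 after 30° C. incubation: 24 h for Ole1, 40 h for SCD1/SCD5.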

SCD5 = target: T2, SCD5 (Homo sapiens, UniProt Q86SK9); test: Growth inhibition of humanized yeast strain expressing SCD5 as sole desaturase; format: cell-based; settings: humanized yeast strain, 40 h
T2 construct: host or cells: S. cerevisiae ole1Δ strain (W303 pdr1Δ pdr3Δ background), plasmid pRS316 with TDH3 promoter and CYC1 terminator
T2 sequence (Q86SK9 1-330): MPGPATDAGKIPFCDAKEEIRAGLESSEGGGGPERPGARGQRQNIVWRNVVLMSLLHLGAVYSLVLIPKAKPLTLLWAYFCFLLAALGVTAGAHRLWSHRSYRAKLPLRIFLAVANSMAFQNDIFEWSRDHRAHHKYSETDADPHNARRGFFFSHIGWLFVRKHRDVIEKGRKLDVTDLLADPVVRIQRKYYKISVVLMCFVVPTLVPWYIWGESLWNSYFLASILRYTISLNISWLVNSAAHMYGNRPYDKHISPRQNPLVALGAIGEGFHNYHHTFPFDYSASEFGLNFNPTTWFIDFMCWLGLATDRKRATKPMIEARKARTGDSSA
How it was run: as §1

Structure (SMILES) | IC50 (SCD1) [µM] | IC50 (SCD5) [µM]
O=C(C1CC1)N1CCN(c2noc(-c3ccc4cnn(C5COC5)c4c3)n2)CC1 [Compound 844] | > 45 | 0.015
CC(C)n1ncc2ccc(-c3nc(N4CCN(C(=O)c5ncccc5F)CC4)no3)cc21 [Compound 845] | > 45 | 0.637
CC1(OC(=O)N2CCC(c3nc(-c4cccc(C5CCOC5)c4)no3)CC2)CC1 (stereo not drawn) [Compound 846] | > 45 | 0.04
CC(C)(C)OC(=O)N1CCC(c2nc(-c3ccc4cnn([C@H]5C[C@H](OC(=O)c6ccc([N+](=O)[O-])cc6)C5)c4c3)no2)CC1 [Compound 847] | > 45 | > 45
CC1(C)CC1C(=O)N1CCC(c2noc(-c3ccc4cnn(C5COC5)c4c3)n2)CC1 (stereo not drawn) [Compound 848] | > 45 | 0.01
CC(C)n1ncc2ccc(-c3nnc(C4CCN(C(=O)OC(C)(C)C)CC4)o3)cc21 [Compound 849] | > 45 | 0.644
CC(C)(C)OC(=O)N1CCCC(c2noc(-c3ccc4cnn(C5COC5)c4c3)n2)CC1 (stereo not drawn) [Compound 850] | > 45 | 0.01
CC(C)(C)OC(=O)N1CCC(c2nnc(-c3ccc4cnn(C5COC5)c4c3)o2)CC1 [Compound 851] | > 45 | 0.065
COC(=O)N1CCC(c2nnc(-c3ccc4cnn(C(C)C)c4c3)o2)CC1 [Compound 852] | > 45 | 5.36
CC(C)n1ncc2ccc(-c3nc(C4CCN(C(=O)CC5CC5)CC4)no3)cc21 [Compound 853] | > 45 | 0.01
CC(C)(C)OC(=O)N1CCCN(c2noc(-c3ccc4cnn(C5COC5)c4c3)n2)CC1 [Compound 854] | 14.6 | 0.01
C=C(C)c1ncn2ccc(-c3noc(C4CCN(C(=O)OC(C)(C)C)CC4)n3)cc12 [Compound 855] | > 45 | > 45
COC(=O)N1CCC(c2nc(-c3ccnc(C(O)C(C)C)c3)no2)CC1 (stereo not drawn) [Compound 856] | > 45 | > 45
COC(=O)N1CCCN(c2noc(-c3ccc4cnn(C5COC5)c4c3)n2)CC1 [Compound 857] | > 45 | 26.8
CC(C)(C)OC(=O)N1CCC(c2nc(-c3ccn4cnc(I)c4c3)no2)CC1 [Compound 858] | > 45 | 0.262
CO[C@H]1C[C@H](n2ncc3ccc(-c4noc(C5CCN(C(=O)OC(C)(C)C)CC5)n4)cc32)C1 [Compound 859] | > 45 | > 4
CC(C)(C)OC(=O)N1CCC(c2noc(-c3cc(F)c4cnn(C5COC5)c4c3)n2)CC1 [Compound 860] | > 45 | 0.478
CC(=O)N1CC(n2ncc3ccc(-c4nc(C5CCN(C(=O)OC(C)(C)C)CC5)no4)cc32)C1 [Compound 861] | 15 | 0.01
c1cc2cnn(C3COC3)c2cc1-c1nc(C2CCCNCC2)no1 (stereo not drawn) [Compound 863] | > 45 | > 45

Structure (SMILES) | IC50 (SCD1) [µM] | IC50 (SCD5) [µM]
O=C(C1CC2(CC2)C1)N1CCN(c2noc(-c3ccc4cnn(C5COC5)c4c3)n2)CC1 [Compound 864] | > 45 | > 45
CC(C)(C)OC(=O)N1CCC(c2nc(-c3ccc4cnc(Br)n4c3)no2)CC1 [Compound 865] | > 45 | 0.01
CC(C)c1ncn2ccc(-c3noc(C4CCN(C(=O)OC(C)(C)C)CC4)n3)cc12 [Compound 866] | > 45 | 4.61
CO[C@H]1C[C@@H](n2ncc3ccc(-c4noc(C5CCN(C(=O)OC(C)(C)C)CC5)n4)cc32)C1 [Compound 867] | > 45 | 1.92
CC(C)n1cc2c(n1)CN(c1noc(C3CCN(C(=O)OC(C)(C)C)CC3)n1)CC2 [Compound 868] | > 45 | 0.967
CC(C)n1ncc2ccc(-c3noc(N4CCN(C(=O)CC5CC5)CC4)n3)cc21 [Compound 869] | > 45 | 1.64
CC(C)n1ncc2ccc(-c3noc(C4CCN(C(=O)CC5CC5(F)F)CC4)n3)cc21 (stereo not drawn) [Compound 870] | > 45 | 4.26
COC(=O)N1CCC(c2nnc(-c3ccc4cnn(C5COC5)c4c3)o2)CC1 [Compound 871] | > 45 | 9.54
CC(C)(C)OC(=O)N1CCC(c2nc(-c3ccc4c(Br)ncn4c3)no2)CC1 [Compound 872] | > 45 | 8.06
COC(=O)N1CCCC(c2noc(-c3ccc4cnn(C5COC5)c4c3)n2)CC1 (stereo not drawn) [Compound 873] | > 45 | 41.3
CC(C)n1ncc2ccc(-c3nc(N4CCN(C(=O)CC5CC5)CC4)no3)cc21 [Compound 874] | > 45 | 0.05
COC(=O)N1CCC(c2noc(-c3cc(F)c4cnn(C5COC5)c4c3)n2)CC1 [Compound 875] | > 45 | 0.02
COC(=O)N1CCC(c2noc(-c3ccc4cnn([C@H]5CCOC5)c4c3)n2)CC1 [Compound 878] | > 45 | 0.005
COC(=O)N1CCC(c2noc(-c3ccc4cnn([C@H]5CCOC5)c4c3)n2)CC1 [Compound 879] | 5.5 | 0.01
O=C(C1CCC1)N1CCC(c2noc(-c3ccc4cnn(C5COC5)c4c3)n2)CC1 [Compound 880] | > 45 | 0.01
O=C(c1ncccc1F)N1CCC(c2noc(-c3ccc4cnn(C5COC5)c4c3)n2)CC1 [Compound 881] | > 45 | 0.01
CC(C)(C)OC(=O)N1CCC(c2noc(-c3cc4c(Cl)nccn4c3)n2)CC1 [Compound 882] | 6.56 | 1.91
CC(C)(C)OC(=O)N1CCC(F)(c2noc(-c3ccc4cnn(C5COC5)c4c3)n2)CC1 [Compound 883] | > 45 | 1
COC1(C(=O)N2CCN(c3noc(-c4ccc5cnn(C6COC6)c5c4)n3)CC2)CC1 [Compound 884] | > 45 | 0.01

Structure (SMILES) | IC50 (SCD1) [µM] | IC50 (SCD5) [µM]
CC(C)n1ncc2cnc(-c3cc(C4CCN(C(=O)OC(C)(C)C)CC4)on3)cc21 [Compound 885] | 25.4 | 0.01
CC1(CC(=O)N2CCC(c3noc(-c4ccc5cnn(C6COC6)c5c4)n3)CC2)CC1 [Compound 886] | 10.6 | 0.06
O=C(C1CC1)N1CCC(c2noc(-c3ccc4cnn(C5COC5)c4c3)n2)CC1 [Compound 887] | > 45 | 0.01
C=C(C)c1nccn2cc(-c3nc(C4CCN(C(=O)OC(C)(C)C)CC4)no3)cc12 [Compound 888] | > 45 | 0.01
COC1(C(=O)N2CCN(c3noc(-c4ccc5cnn(C(C)C)c5c4)n3)CC2)CC1 [Compound 889] | 13.3 | 1.9
O=C(N1CCC(c2noc(-c3ccc4cnn(C5COC5)c4c3)n2)CC1)C12CC(C1)C2 [Compound 890] | 22.7 | 0.01
CCC(=O)N1CCC(c2noc(-c3ccc4cnn(C5COC5)c4c3)n2)CC1 [Compound 891] | > 45 | 0.01
COC(=O)N1CCC(F)(c2noc(-c3ccc4cnn(C5COC5)c4c3)n2)CC1 [Compound 892] | > 45 | 0.01
CC(C)n1ncc2c1CN(c1noc(C3CCN(C(=O)OC(C)(C)C)CC3)n1)CC2 [Compound 893] | > 45 | 0.01
O=C(CC1CC1)N1CCC(c2noc(-c3ccc4cnn(C5COC5)c4c3)n2)CC1 [Compound 894] | > 45 | 0.07
O=C(N1CCC(c2noc(-c3ccc4cnn(C5COC5)c4c3)n2)CC1)C12CC(F)(C1)C2 [Compound 895] | > 45 | 0.01
Clc1cnc2n1CCN(c1noc(-c3ccc4cnn(C5COC5)c4c3)n1)C2 [Compound 896] | > 45 | 0.01
CC(=O)N1CC(n2ncc3ccc(-c4noc(N5CCN(C(=O)OC(C)(C)C)CC5)n4)cc32)C1 [Compound 897] | > 45 | 0.06
CC(=O)N1CC(n2cc3ccc(-c4noc(N5CCN(C(=O)OC(C)(C)C)CC5)n4)cc3n2)C1 [Compound 898] | > 45 | 0.07
CC(C)(C)OC(=O)N1CCC(c2nc(-c3ccc4c(C#N)ncn4c3)no2)CC1 [Compound 899] | > 45 | 26
COC(=O)N1CCC(c2nc(-c3ccc4cnc(C5COC5)n4c3)no2)CC1 [Compound 900] | > 45 | 13.1
CC(C)c1nccn2cc(-c3nc(C4CCN(C(=O)OC(C)(C)C)CC4)no3)cc12 [Compound 901] | > 45 | > 45
COC1(C(=O)N2CCC(c3noc(-c4ccc5cnn(C6COC6)c5c4)n3)CC2)CC1 [Compound 902] | > 45 | 0.01
O=C(N1CCC(c2noc(-c3ccc4cnn(C5COC5)c4c3)n2)CC1)C1(O)CC1 [Compound 903] | > 45 | 0.01
